Reference: patent US20200223839A1, “FLUORO-CONTAINING COMPOUNDS, USE AND PREPARATION THEREOF” (JIANGSU YINGKEBEITA YIYAOKEJI CO. LTD, priority 2017, published 2020)

Experiments:
Calu-6 = experiment: Cytotoxicity assay by the CTG method, Calu-6; assay type: cell-based; settings: Homo sapiens, Calu-6, Lung cancer, 72 h
Experimental: (§1) The corresponding cells were harvested from flask into cell culture medium and the cell number were counted. The cells were diluted with culture medium to the desired density and 40 μL of cell suspension was added into each well of 384-well cell culture plate as designated. The plates were covered with lid and placed in room temperature for 30 minutes without shaking and then were transferred plates into 37° C. 5% CO2 incubator overnight for cell attachment.
(§2) Compound preparation and treatment: Test compounds were received or dissolved at 30 mM stock solution and control compound Staurosporine was stored as 10 mM and 1 mM concentration. 45 uL of stock solution was transferred to a 384 pp-plate. 3 fold, 10-point dilution were performed via transferring 15 uL compound into 30 μL DMSO by using TECAN (EVO200) liquid handler. The plates were spun at room temperature at 1,000 RPM for 1 minute and shaken at a plate shaker for 2 minutes. […]
(§3) The plate from incubators were placed and equilibrated at room temperature for 15 minutes. […] 40 μL of CellTiter-Glo reagent were transferred into each well to be detected (at 1:1 to culture medium). Then the plates were placed at room temperature for 30 min followed by reading on EnSpire.
(§4) The inhibition activity was calculated following the formula below: […]
(§5) The IC50 were calculated by fitting the Curve using Xlfit (v5.3.1.3): […]

A549 = experiment: Cytotoxicity assay by the CTG method, A549; assay type: cell-based; settings: Homo sapiens, A549, Lung cancer, 72 h
Experimental: as §1, §2, §3, §4, §5

SK-MEL-3 = experiment: Cytotoxicity assay by the CTG method, SK-MEL-3; assay type: cell-based; settings: Homo sapiens, SK-MEL3, SK-MEL-3, Melanoma, 72 h
Experimental: as §1, §2, §3, §4, §5

[1] = In vivo xenograft study, MDA-MB-468, mice weights; settings: MDA-MB-468 xenograft in BALB/c-nu mice, FIGS. 3 and 5
Experimental: MDA-MB-468 cells (human breast cancer) in its log growth phase were implanted in BALB/c-nu mice. When the tumor volume was approximately 50-150 mm^3, the mice were randomized into four groups, each include 8 mice. The four groups were treated with vehicle, Ref. 1, 4f, and Ref. 2, respectively, and the tumor sizes were measured two to three times each week and the mice were also weighted.

SK-OV-3 = experiment: Cytotoxicity assay by the CTG method, SK-OV-3; assay type: cell-based; settings: Homo sapiens, SK-OV-3, Ovarian cancer, 72 h
Experimental: as §1, §2, §3, §4, §5

Which results are given for Cc1ccc(S(=O)(=O)Nc2nc3ccccc3nc2Nc2ccc3nsnc3c2)cc1F [Compound 4f, N-[3-(benzo[1,2,5]thiadiazol-5-ylamino)-quinoxalin-2-yl]-3-fluoro-4-methyl-benzenesulfonamide]?
IC50 (Calu-6): 4.89 µM; IC50 (A549): 8.33 µM; IC50 (SK-MEL-3): 9.06 µM; weight changes of mice [1]: no significant weight changes; IC50 (SK-OV-3): 9.37 µM
